In US6359001B1, “Use of α-methyl-p-tyrosine to inhibit melanin production in iris melanocytes” (Pharmacia AB, priority 1997, dated 2002):
Like-named read-outs stand apart in the source and are kept apart here. Marks after values point to notes of the source that are not given here.

How the values were obtained:
monkey iris = conditions: cited from earlier work
iris = conditions: cited from earlier work
uveal melanocytes [1] = assay: Melanin content of cultured uveal (iris) melanocytes; format: cell-based; conditions: for Melanin content: growth stage
Experimental: (§1) Uveal melanocytes were isolated and cultured from adult donor eyes. The iris was excised and placed in a dish with the posterior surface upward. The iris pigment epithelium was separated from the stroma after immersion in 0.25% trypsin solution (Gibco, USA) at 37° C. for 2 hour. The remaining iris stroma was placed in a 0.25% trypsin solution at 4° C. for 18 hours, followed by incubation at 37° C. for 1 hour. The isolated cells were collected. The trypsin solution was replaced by collagenase solution (400 U/ml, in F-12 medium, Sigma, USA) and incubated at 37° C. The collagenase solution was replaced, and the cells were collected, centrifuged, resuspended, and plated each hour for 3 hours.
(§2) The isolated uveal melanocytes were cultured in Falcon culture dishes (Becton Dickinson, USA) with FIC medium, which consisted of F-12 medium supplemented with 10% fetal bovine serum, 2 mM glutamine (all from Gibco), 10 ng/ml cholera toxin, 0.1 mM isobutylmethylxanthine, 50 μg/ml gentamicin (all from Sigma), and 20 ng/ml basic fibroblast growth factor (Promega, USA). The culture dishes were incubated in a humidified 5% CO2 atmosphere. The medium was changed three times a week. Geneticin (Sigma, USA); a cytotoxic agent, was added (100 μg/ml) for 3 to 7 days when necessary.
(§3) The 8 cell strains of uveal melanocytes used in the present study were isolated from donors with different iris color (brown and brown-blue).
(§4) Cultured uveal melanocytes were detached by trypsin-EDTA solution and counted in a hemocytometer, the cell suspensions were centrifuged, and the pellet was dissolved in 1 N NaOH. Melanin concentration was determined by measurement of optical density at 475 nm and compared with a standard curve obtained using synthetic melanin (Sigma). Melanin content was expressed as ng/cell.

uveal melanocytes [2] = assay: Melanin production of cultured uveal (iris) melanocytes; format: cell-based; conditions: for Melanin production: growth stage; for Melanin production by iris melanocytes (summary in words): in vitro experiments
Experimental: as §1, §2, §3, §4
Melanin production was calculated by determining the melanin content and the cell counts at the beginning and the end of each generation by the following formula: […]
where C0 and Ct represent the melanin content per cell at times 0 and time t, respectively; P is the population increase during time t, D is the doubling time of the uveal melanocytes; and Cp is melanin production per cell per day during time t.

tyrosinase = target: T1, tyrosinase (Homo sapiens, UniProt P14679); assay: Tyrosinase activity in uveal melanocyte cell strains (adapted Pomerantz method, 3H2O release); format: cell-based; conditions: for Tyrosinase activity: growth stage
T1 construct: endogenous in cells; host or cells: primary uveal (iris) melanocyte cell strains from donor eyes (brown and brown-blue irises)
T1 sequence (P14679 19-529): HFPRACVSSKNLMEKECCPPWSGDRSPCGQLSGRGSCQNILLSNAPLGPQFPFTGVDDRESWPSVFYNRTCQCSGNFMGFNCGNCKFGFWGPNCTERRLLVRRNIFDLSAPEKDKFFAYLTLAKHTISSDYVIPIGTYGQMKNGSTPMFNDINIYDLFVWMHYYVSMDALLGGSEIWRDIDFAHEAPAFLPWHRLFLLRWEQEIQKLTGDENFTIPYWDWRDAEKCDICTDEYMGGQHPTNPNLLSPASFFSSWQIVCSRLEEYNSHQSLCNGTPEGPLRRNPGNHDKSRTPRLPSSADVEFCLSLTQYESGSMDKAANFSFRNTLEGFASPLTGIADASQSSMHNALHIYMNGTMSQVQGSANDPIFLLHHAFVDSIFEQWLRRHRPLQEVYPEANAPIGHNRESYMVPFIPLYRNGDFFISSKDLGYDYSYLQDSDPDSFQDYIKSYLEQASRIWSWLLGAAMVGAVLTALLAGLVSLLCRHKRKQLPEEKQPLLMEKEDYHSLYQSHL
Experimental: as §1, §2, §3
Tyrosinase activity was evaluated in nine cell strains using an adaptation of the Pomerantz method, which is based on the measurement of ^3H2O released by the enzymatic hydroxylation of tyrosine.

[3] = clinical concentrations for the treatment of pheocromocytoma; cited from earlier work
[4] = 3 cell strains (brown-blue), latanoprost 10^−5 M, no α-methyl-p-tyrosine
[5] = 3 cell strains (brown-blue), latanoprost 10^−6 M, no α-methyl-p-tyrosine
[6] = 3 cell strains (brown-blue), latanoprost 10^−7 M, no α-methyl-p-tyrosine
[7] = 3 cell strains (brown-blue), latanoprost 10^−8 M, no α-methyl-p-tyrosine
[8] = 5 cell strains (brown), latanoprost 10^−5 M, no α-methyl-p-tyrosine
[9] = 5 cell strains (brown), latanoprost 10^−6 M, no α-methyl-p-tyrosine
[10] = 5 cell strains (brown), latanoprost 10^−7 M, no α-methyl-p-tyrosine
[11] = 5 cell strains (brown), latanoprost 10^−8 M, no α-methyl-p-tyrosine
[12] = brown and brown-blue iris strains, latanoprost at the highest molar concentrations
[13] = 3 cell strains (brown-blue), α-methyl-p-tyrosine 10^−5, no latanoprost
[14] = 3 cell strains (brown-blue), α-methyl-p-tyrosine 10^−5 with latanoprost 10^−5 M
[15] = 3 cell strains (brown-blue), α-methyl-p-tyrosine 10^−5 with latanoprost 10^−6 M
[16] = 3 cell strains (brown-blue), α-methyl-p-tyrosine 10^−5 with latanoprost 10^−7 M
[17] = 3 cell strains (brown-blue), α-methyl-p-tyrosine 10^−5 with latanoprost 10^−8 M
[18] = 5 cell strains (brown), α-methyl-p-tyrosine 10^−5, no latanoprost
[19] = 5 cell strains (brown), α-methyl-p-tyrosine 10^−5 with latanoprost 10^−5 M
[20] = 5 cell strains (brown), α-methyl-p-tyrosine 10^−5 with latanoprost 10^−6 M
[21] = 5 cell strains (brown), α-methyl-p-tyrosine 10^−5 with latanoprost 10^−7 M
[22] = 5 cell strains (brown), α-methyl-p-tyrosine 10^−5 with latanoprost 10^−8 M
[23] = α-methyl-p-tyrosine 10^−5 M added with latanoprost 10^−7 to 10^−5 M, brown and brown-blue irises

CCCCC[C@H](O)/C=C/[C@H]1[C@H](O)CC(=O)[C@@H]1C/C=C\CCCC(=O)O [PGE2]
Pigmentation of the monkey iris (monkey iris; chronic treatment): increased pigmentation

CCCCC[C@H](O)/C=C/[C@@H]1[C@@H](C/C=C\CCCC(=O)O)[C@@H](O)C[C@H]1O [PGF2α]
Pigmentation of the monkey iris (monkey iris; monkey, in vivo): increased pigmentation

CCCCCCCC(=O)CC[C@@H]1[C@@H](C/C=C\CCCC(=O)OC(C)C)[C@@H](O)C[C@H]1O [isopropyl unoprostone, 13,14-dihydro-15-keto-20-ethyl-PGF2α isopropylester]
Iris colour change in patients (iris; human, in vivo): darkening of the iris

CC(C)OC(=O)CCC/C=C\C[C@@H]1[C@@H](CC[C@@H](O)CCc2ccccc2)[C@H](O)C[C@@H]1O [latanoprost, 13,14-dihydro-17-phenyl-18,19,20-tri-nor-PGF2αisopropyl ester]
Melanin content (uveal melanocytes [1]; [4]): 0.0151* ng/cell | Melanin content (uveal melanocytes [1]; [5]): 0.0149* ng/cell | Melanin content (uveal melanocytes [1]; [6]): 0.0142* ng/cell | Melanin content (uveal melanocytes [1]; [7]): 0.0127 ng/cell | Melanin content (uveal melanocytes [1]; [8]): 0.0149* ng/cell | Melanin content (uveal melanocytes [1]; [9]): 0.0161* ng/cell | Melanin content (uveal melanocytes [1]; [10]): 0.0151 ng/cell | Melanin content (uveal melanocytes [1]; [11]): 0.0141 ng/cell | Melanin content (in words) (uveal melanocytes [1]; [12]): increased | Melanin production (uveal melanocytes [2]; [4]): 0.0067* ng/cell/day | Melanin production (uveal melanocytes [2]; [5]): 0.0056* ng/cell/day | Melanin production (uveal melanocytes [2]; [6]): 0.0046* ng/cell/day | Melanin production (uveal melanocytes [2]; [7]): 0.0038 ng/cell/day | Melanin production (uveal melanocytes [2]; [8]): 0.0047* ng/cell/day | Melanin production (uveal melanocytes [2]; [9]): 0.0036 ng/cell/day | Melanin production (uveal melanocytes [2]; [10]): 0.0046* ng/cell/day | Melanin production (uveal melanocytes [2]; [11]): 0.0038 ng/cell/day | Melanin production (in words) (uveal melanocytes [2]; [12]): increased | Tyrosinase activity (tyrosinase; [4]): 62.7* units | Tyrosinase activity (tyrosinase; [5]): 52.5* units | Tyrosinase activity (tyrosinase; [6]): 48.1* units | Tyrosinase activity (tyrosinase; [7]): 33.7 units | Tyrosinase activity (tyrosinase; [8]): 63.1* units | Tyrosinase activity (tyrosinase; [9]): 42.5 units | Tyrosinase activity (tyrosinase; [10]): 38.3 units | Tyrosinase activity (tyrosinase; [11]): 36.7 units | Tyrosinase activity (in words) (tyrosinase; [12]): increased | Pigmentation of the monkey iris (monkey iris; chronic treatment): increased pigmentation | Iris colour change in patients (iris; chronic therapy, sometimes noted): darkening of the iris

CC(N)(Cc1ccc(O)cc1)C(=O)O (stereo not drawn) [α-methyl-p-tyrosine, α-methyl-para-tyrosine]
Melanin content (uveal melanocytes [1]; [13]): 0.0122 ng/cell | Melanin content (uveal melanocytes [1]; [14]): 0.0128 ng/cell | Melanin content (uveal melanocytes [1]; [15]): 0.0125 ng/cell | Melanin content (uveal melanocytes [1]; [16]): 0.0123 ng/cell | Melanin content (uveal melanocytes [1]; [17]): 0.0119 ng/cell | Melanin content (uveal melanocytes [1]; [18]): 0.0133 ng/cell | Melanin content (uveal melanocytes [1]; [19]): 0.0131 ng/cell | Melanin content (uveal melanocytes [1]; [20]): 0.0137 ng/cell | Melanin content (uveal melanocytes [1]; [21]): 0.0136 ng/cell | Melanin content (uveal melanocytes [1]; [22]): 0.0135 ng/cell | Melanin content (in words) (uveal melanocytes [1]; [23]): significant decrease | Melanin production (uveal melanocytes [2]; [13]): 0.0023 ng/cell/day | Melanin production (uveal melanocytes [2]; [14]): 0.0031 ng/cell/day | Melanin production (uveal melanocytes [2]; [15]): 0.0029 ng/cell/day | Melanin production (uveal melanocytes [2]; [16]): 0.0029 ng/cell/day | Melanin production (uveal melanocytes [2]; [17]): 0.0025 ng/cell/day | Melanin production (uveal melanocytes [2]; [18]): 0.0033 ng/cell/day | Melanin production (uveal melanocytes [2]; [19]): 0.0031 ng/cell/day | Melanin production (uveal melanocytes [2]; [20]): 0.0029 ng/cell/day | Melanin production (uveal melanocytes [2]; [21]): 0.0039 ng/cell/day | Melanin production (uveal melanocytes [2]; [22]): 0.0035 ng/cell/day | Melanin production by iris melanocytes (summary in words) (uveal melanocytes [2]): inhibited | Melanin production by iris melanocytes (summary in words) (uveal melanocytes [2]; listed as α-methyl-para-tyrosine): significantly reduced | Melanin production (in words) (uveal melanocytes [2]; [23]): significant decrease | Tyrosinase activity (tyrosinase; [13]): 32.4 units | Tyrosinase activity (tyrosinase; [14]): 39.5 units | Tyrosinase activity (tyrosinase; [15]): 34.6 units | Tyrosinase activity (tyrosinase; [16]): 31.7 units | Tyrosinase activity (tyrosinase; [17]): 34.6 units | Tyrosinase activity (tyrosinase; [18]): 33.6 units | Tyrosinase activity (tyrosinase; [19]): 31.5 units | Tyrosinase activity (tyrosinase; [20]): 34.6 units | Tyrosinase activity (tyrosinase; [21]): 38.7 units | Tyrosinase activity (tyrosinase; [22]): 35.5 units | Tyrosinase activity (in words) (tyrosinase; [23]): significant decrease | Catecholamine concentration in the body [3]: markedly reduced
